Laboratory results taken from patent US8173144B2, “Administration of urea compounds for combating signs of cutaneous aging” (L'Oreal, priority 2004, dated 2012).

Tested on: acid proteases of the SC (stratum corneum)
Assay: Activation of acid proteases of the stratum corneum (Enzchek fluorimetry, Bodipy FL casein substrate)
Type: biochemical
Protocol: The property of activating certain acid proteases of the SC (stratum corneum) is evaluated. This activity is measured by virtue of a quantitative determination by fluorimetry using the Enzchek kit (Molecular Probes). This protocol uses a Bodipy FL casein substrate which releases fluorescence when it is hydrolyzed. The fluorescence released is directly proportional to the protease activity. It is read directly in a 96-well plate with a spectrofluorimeter at 750 V at 485 nm in excitation and 535 nm in emission.
The molecules are prepared at 0, 1, 2 and 4M in a 0.1M; pH 5.0; acetate buffer.
An enzyme extract is prepared from acetone powders.
2 ml of PBS buffer+0.1% of Triton X100 are brought into contact for 1 h in crushed ice with 200 mg of stratum corneum acetone powders. The mixture is subsequently ground in a Potter homogenizer and then centrifuged at 15 000 g for 10 min at 4° C. The supernatant is collected. The Enzchek substrate, diluted to 1/200, is incorporated in each solution comprising the molecules. The assays are repeated three times.
The reaction mixture is prepared directly in a white plate.
10 μl of enzyme extract are added to 200 μl of solution comprising the substrate at 0, 1, 2 or 4M. The readings are carried out at t0, t 2h, t 16h and t 24h.

[1] = 1 and 2M in 0.1M acetate buffer pH 5.0, readings t0, t 2h, t 16h, t 24h

| SMILES | acid protease activity (fluorescence) with respect to the control [1] | acid protease activity (fluorescence) with respect to the control (4M in 0.1M acetate buffer pH 5.0, whatever the time studied) |
| --- | --- | --- |
| NC(N)=O [Urea, urea] | slightly activating effect on the acid proteases up to two hours | – |
| NC(=O)NCCO [N-(2-hydroxethyl)urea, N-(2-hydroxyethyl)urea] | significant increase in the activity | marked decrease in the activity |
